Our source for the TGI and GI50 values is PubChem BioAssay (NCI).

Molecules are shown by their SMILES.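 Following 48 hours of exposure in 96-well plates, responses at five concentrations were used to interpolate endpoints linearly. GI50: concentration for 50% inhibition of growth. At the TGI there is no net growth.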 A value given as a limit tells only on which side of the number the result lay.

Some test systems named below: M14 melanoma; OVCAR-3 ovarian; SF-268 CNS; TK-10 renal; A498 renal; UACC-62 melanoma; HCT-116 colon; SK-MEL-28 melanoma.
Common to all, as to assay: NCI tumour cell line growth inhibition, 48 h

Turning to `COc1cc(Br)cc2cc(-c3cn4c(n3)sc3ccccc34)c(=O)oc12`, the TGI in the test with M14 melanoma was above 75 µM; in the test on OVCAR-3 ovarian, 54.5 µM; in the test with SF-268 CNS, above 75 µM; in the test on TK-10 renal, above 75 µM; with A498 renal, 51 µM; with UACC-62 melanoma, above 75 µM. Also, the TGI with HCT-116 colon is above 75 µM.
On to `CCOc1ncn(-c2ccc(NC(=S)NC3OC(CO)C(O)C(O)C3O)cc2)n1` (stereo unspecified), for which the TGI with M14 melanoma, with OVCAR-3 ovarian, in the test with SF-268 CNS, with TK-10 renal, in the test on SK-MEL-28 melanoma and in the test on UACC-62 melanoma was above 100 µM in each case. Besides, in the test with HCT-116 colon, the TGI was above 100 µM.
On to `CCc1cc(Cc2cc(CC)c(NC(=O)C(=O)CC(=O)c3sc(-c4cccnc4)nc3C)c(CC)c2)cc(CC)c1NC(=O)C(=O)CC(=O)c1sc(-c2cccnc2)nc1C`, for which the TGI in the test on M14 melanoma, in the test with OVCAR-3 ovarian, with SF-268 CNS, in the test on SK-MEL-28 melanoma, in the test with A498 renal and in the test on UACC-62 melanoma was above 100 µM each time. In addition, in the test on HCT-116 colon, the TGI is above 100 µM.
Turning to `O=C(NC(Cc1ccccc1)(Cc1ccc(O)cn1)C(=O)O)c1ccccc1` (stereo unspecified), the TGI with M14 melanoma, with OVCAR-3 ovarian, in the test on SF-268 CNS, with TK-10 renal, in the test on SK-MEL-28 melanoma and in the test with UACC-62 melanoma was above 100 µM in each case. Further, the TGI in the test with HCT-116 colon is above 100 µM.
`O=C1NC(=S)NC(=O)C1C(c1ccc(O)cc1)C1C(=O)NC(=S)NC1=O`: the TGI in the test with M14 melanoma, in the test on OVCAR-3 ovarian, in the test with TK-10 renal, with SK-MEL-28 melanoma, with A498 renal and in the test on UACC-62 melanoma was above 100 µM in each case. In addition, in the test with HCT-116 colon, the TGI was above 100 µM.
In the case of `C[C@@H]1Nc2cc(NC(=O)OCCF)nc(N)c2N=C1c1ccccc1`, the TGI with OVCAR-3 ovarian is below 0.0001 µM; in the test with SK-MEL-28 melanoma it was above 100 µM; in the test with UACC-62 melanoma, above 100 µM; in the test on HCT-116 colon, above 100 µM. Further, the GI50 with A498 renal is below 0.0001 µM.
Regarding `CC(C)=C[C@H]1CCC2(OCCO2)[C@]1(C)COCc1ccccc1`, the TGI in the test on M14 melanoma is 99.4 µM; with OVCAR-3 ovarian, 52.7 µM; in the test with SF-268 CNS, above 100 µM; with TK-10 renal, above 100 µM; in the test with SK-MEL-28 melanoma it was above 100 µM; in the test with A498 renal it was 66.7 µM. Further, the TGI in the test on HCT-116 colon is above 100 µM.
As to `CCOC(=O)Cc1nc2cc(F)c(F)cc2[nH]c1=O`, the TGI in the test on M14 melanoma, with OVCAR-3 ovarian, in the test with SF-268 CNS, in the test with TK-10 renal, with SK-MEL-28 melanoma and in the test on UACC-62 melanoma was above 100 µM in each case. This compound displayed a TGI in the test with HCT-116 colon above 100 µM.
With `O=c1cc(N2CCCC2)[nH]c(=O)n1-c1cccc(Cl)c1`, the TGI with M14 melanoma, with OVCAR-3 ovarian, with SF-268 CNS, in the test with TK-10 renal, with A498 renal and with UACC-62 melanoma was above 100 µM each time. The compound further had a TGI in the test with HCT-116 colon above 100 µM.
Turning to `CC(=O)[C@@H](C)C(=O)N1C(=O)OC[C@@]12[C@@H]1CC[C@@H](C1)C2(C)C`, the TGI in the test on M14 melanoma, with TK-10 renal, with SK-MEL-28 melanoma, in the test on A498 renal, with UACC-62 melanoma and with HCT-116 colon was above 100 µM in each case.
For the compound `CCCCC1Cc2ccccc2-c2nc3ccccc3n21` (stereo unspecified), the TGI in the test with M14 melanoma is 36.3 µM; in the test on OVCAR-3 ovarian it was 30.3 µM; in the test on SF-268 CNS it was 33 µM; with TK-10 renal, 31.5 µM; with SK-MEL-28 melanoma it was 31 µM; in the test on A498 renal it was 30.6 µM. In the test on HCT-116 colon, this compound registered a TGI of 26.6 µM.
As to `CCOC(=O)c1ccc(NCc2ccc3oc(=O)c(-c4ccccc4)nc3c2)cc1`, the TGI in the test on M14 melanoma was above 100 µM; in the test with OVCAR-3 ovarian, 90.5 µM; in the test on SF-268 CNS it was above 100 µM; in the test with SK-MEL-28 melanoma, 87.3 µM; in the test on A498 renal it was above 100 µM; in the test on UACC-62 melanoma, above 100 µM. This compound also registered a TGI with HCT-116 colon of 80.3 µM.
In the case of `CC(=O)ONC(C(=O)C(C)(C)C)C(=O)C(C)(C)C`, the TGI in the test on M14 melanoma, in the test on OVCAR-3 ovarian, in the test on SF-268 CNS, with TK-10 renal, in the test with SK-MEL-28 melanoma and in the test on A498 renal was above 100 µM in each case. The TGI in the test on HCT-116 colon is above 100 µM.
As to `COCc1nc2c(OC)c(-c3nc4nc(N5CCN(C)CC5)ccc4[nH]3)cc(OC)c2n1C`, the TGI with M14 melanoma is 43.3 µM; in the test on OVCAR-3 ovarian it was above 100 µM; with SF-268 CNS, above 100 µM; in the test on SK-MEL-28 melanoma, 56 µM; in the test on UACC-62 melanoma, 41.1 µM; in the test with HCT-116 colon, above 100 µM.
On to `CSc1cc(Cl)c(C)cc1S(=O)(=O)NC(=O)NNc1cccc(C(F)(F)F)n1`, for which the TGI in the test with M14 melanoma, in the test on OVCAR-3 ovarian, with SF-268 CNS, in the test with SK-MEL-28 melanoma, in the test on A498 renal and in the test with HCT-116 colon was above 100 µM in each case.
In the case of `C[C@@H](c1ccccc1)n1c(N)c(C#N)c2ccc([N+](=O)[O-])cc2c1=O`, the TGI was above 100 µM with SF-268 CNS; 24 µM with TK-10 renal; 39.5 µM in the test with SK-MEL-28 melanoma; 24.4 µM in the test with A498 renal; 30.4 µM with UACC-62 melanoma; 28.8 µM in the test on HCT-116 colon.
Regarding `CCO/C=N\C1=C(C#N)SC2=N/C(=C\c3ccc(OC)cc3)C(=O)N21`, the TGI in the test on M14 melanoma, in the test with SF-268 CNS, in the test with TK-10 renal, in the test on SK-MEL-28 melanoma, with A498 renal and with HCT-116 colon was above 100 µM each time.
In the case of `CC(C)=C[C@H]1CCC2(OCCO2)[C@]1(C)CO`, the TGI with M14 melanoma, in the test with SF-268 CNS, in the test with TK-10 renal, in the test on SK-MEL-28 melanoma, in the test with A498 renal and in the test with HCT-116 colon was above 100 µM throughout.
Consider `O=C(Nc1nnc(-c2ccc(Cl)cc2)o1)C(SC(=S)N1CCOCC1)c1ccccc1` (stereo unspecified), for which the TGI is above 100 µM in the test on M14 melanoma; 30.2 µM with OVCAR-3 ovarian; above 100 µM in the test on TK-10 renal; above 100 µM in the test on SK-MEL-28 melanoma; 56.5 µM in the test on A498 renal; 26.5 µM in the test on HCT-116 colon.
Take `CC(=O)OC1C(Oc2c(C)cc3c(c2O)[C@@H](C)CC[C@@H]3[C@@H](C)CCC=C(C)C)OCC(O)C1O` (stereo partly specified): the TGI in the test on M14 melanoma was found to be 30.9 µM; with OVCAR-3 ovarian, 29.8 µM; with SF-268 CNS, 33.1 µM; in the test on A498 renal, 36.5 µM; with UACC-62 melanoma it was 34.9 µM; in the test on HCT-116 colon, 32.2 µM.
Take `C(/C=C/Nc1ccc(Oc2ccccc2)cc1)=Nc1ccc(Oc2ccccc2)cc1`: the TGI with OVCAR-3 ovarian is 34.3 µM; in the test with SF-268 CNS, 40.7 µM; in the test on TK-10 renal it was 34.7 µM; in the test on SK-MEL-28 melanoma it was 30.3 µM; in the test with A498 renal, 29.7 µM; with HCT-116 colon, 31.2 µM.
Turning to `CC1(C)C[C@@H]2C1CCC1(C)CC2(O)CC[C@H]1O` (stereo partly specified), the TGI in the test with M14 melanoma, in the test on OVCAR-3 ovarian, in the test with SF-268 CNS, with TK-10 renal, in the test on SK-MEL-28 melanoma and in the test with UACC-62 melanoma was above 100 µM each time.
On to `N#C/C(=C/NC(N)=S)C(N)=O`, for which the TGI in the test with M14 melanoma, with OVCAR-3 ovarian, in the test with SF-268 CNS, in the test on TK-10 renal, in the test with SK-MEL-28 melanoma and in the test with A498 renal was above 100 µM in each case. Moreover, the TGI with HCT-116 colon is above 100 µM.
On to `O=C(/C=C/c1ccc2ccccc2c1)NCc1ccc(C(=O)NCCc2ccccc2)cc1`, for which the TGI in the test with M14 melanoma, with OVCAR-3 ovarian, in the test with SF-268 CNS, in the test on SK-MEL-28 melanoma, with A498 renal and with UACC-62 melanoma was above 100 µM each time. Besides, the TGI in the test with HCT-116 colon is above 100 µM.
`CO/C=C(/C(=O)OC)c1ccccc1COc1cccc(C(F)(F)F)c1`: the TGI with M14 melanoma is above 100 µM; in the test with OVCAR-3 ovarian it was 55 µM; in the test on SF-268 CNS, above 100 µM; in the test with SK-MEL-28 melanoma, above 100 µM; with A498 renal, 68.6 µM; in the test on UACC-62 melanoma, 42 µM. Also, in the test with HCT-116 colon, the TGI is above 100 µM.
Turning to `COc1cc(-c2nc3ccccn3c2/N=C/c2cc(Br)cc(Br)c2O)ccc1O`, the TGI in the test on M14 melanoma worked out at 38.5 µM; in the test with OVCAR-3 ovarian it was 39 µM; in the test with SF-268 CNS, 39.7 µM; in the test with TK-10 renal, 67.8 µM; in the test with SK-MEL-28 melanoma, 40.7 µM; with UACC-62 melanoma, 72.4 µM. Besides, the TGI in the test on HCT-116 colon amounted to 34.7 µM.
Consider `CCCc1c(O)nc(Nc2nc3ccccc3[nH]2)[nH]c1=O`, for which the TGI with M14 melanoma, in the test with SF-268 CNS, with TK-10 renal, in the test with A498 renal, with UACC-62 melanoma and with HCT-116 colon was above 100 µM each time.
As for `N#CCCC(CCC#N)(CCC#N)NO`, the TGI in the test with M14 melanoma, in the test with SF-268 CNS, with TK-10 renal, in the test with UACC-62 melanoma and in the test on HCT-116 colon was above 100 µM in each case.
